Holding throughout (type): functional
Conditions in all cases: read-out: ED50 (the source's name)

Assay [1] concerns KB. The experiment in a line: Cytotoxicity against human KB cells by MTT assay. (In general: Formazan colour is commonly taken as a measure of viable cells.)
Assay [2] relates to A549. The experiment in a line: Cytotoxicity against human A549 cells by MTT assay.
For assay [3], the system named is HT-29. The experiment in a line: Cytotoxicity against human HT-29 cells by MTT assay.
In assay [4] the test system is P388. Kind of assay: Cytotoxicity against mouse P388 cells by MTT assay.

This passage reports EC50 results from ChEMBL document CHEMBL1141810, “Excavatolides F-M, new briarane diterpenes from the gorgonian Briareum excavatum” (1999).

Values after ≈ are worked out from the molar mass of the structure shown. Bounds are passed on as bounds.

With `CCCC(=O)O[C@H]1C[C@H](OC(C)=O)[C@@]2(C)[C@H]([C@H]1C)[C@@H](OC(C)=O)[C@]13O[C@@]1(C)C(=O)O[C@H]3/C=C(/C)C[C@H](OC(C)=O)[C@H]2OC(C)=O` [EXCAVATOLIDE J], the EC50 in assay [1] turned out to be 6.5 mg/L (≈ 10.2 µM); in assay [2] it was 5.2 mg/L (≈ 8.17 µM); in assay [3] it was 5.2 mg/L (≈ 8.17 µM); in assay [4], 3.8 mg/L (≈ 5.97 µM).
On to `CCCC(=O)O[C@H]1C[C@H](OC(C)=O)[C@@]2(C)[C@H]([C@H]1C)[C@@H](OC(C)=O)[C@]13O[C@@]1(C)C(=O)O[C@H]3/C=C(/C)C[C@H](OC(=O)CCC)[C@H]2OC(C)=O` [EXCAVATOLIDE H], for which the EC50 in assay [1], in assay [2], in assay [3] and in assay [4] was above 50 mg/L in each case.
On to `CCCC(=O)O[C@H]1C/C(C)=C\[C@@H]2OC(=O)[C@]3(C)O[C@]23[C@H](OC(C)=O)[C@H]2[C@@H](C)[C@@H](OC(C)=O)C[C@H](OC(C)=O)[C@]2(C)[C@@H]1OC(C)=O` [EXCAVATOLIDE I], for which the EC50 in assay [1], in assay [2], in assay [3] and in assay [4] was above 50 mg/L each time.
As to `CC(=O)O[C@H]1C[C@H](OC(C)=O)[C@@]2(C)[C@H]([C@H]1C)[C@@H](OC(C)=O)[C@]13O[C@@]1(C)C(=O)O[C@H]3/C=C(/C)C[C@H](OC(C)=O)[C@H]2OC(C)=O` [EXCAVATOLIDE K], the EC50 was determined as 3.3 mg/L (≈ 5.42 µM) in assay [1], 3 mg/L (≈ 4.93 µM) in assay [2], 1.3 mg/L (≈ 2.14 µM) in assay [3] and 0.9 mg/L (≈ 1.48 µM) in assay [4].
For `CCCC(=O)O[C@H]1C[C@H](OC(C)=O)[C@@]2(C)[C@H]([C@H]1C)[C@@H](OC(C)=O)[C@]13O[C@@]1(C)C(=O)O[C@H]3/C=C(C)\C=C\[C@@H]2OC(C)=O` [EXCAVATOLIDE F] the same measures were 7 mg/L (≈ 12.1 µM), 5.2 mg/L (≈ 9.02 µM), 5.5 mg/L (≈ 9.54 µM) and 6.2 mg/L (≈ 10.8 µM).
The matching figures for `CC(=O)O[C@H]1C[C@H](OC(C)=O)[C@@]2(C)[C@H]([C@H]1C)[C@@H](OC(C)=O)[C@]13O[C@@]1(C)C(=O)O[C@H]3/C=C(/C)CC[C@H]2OC(C)=O` [EXCAVATOLIDE G]: above 50 mg/L, 22.8 mg/L (≈ 41.4 µM), above 50 mg/L and 15.7 mg/L (≈ 28.5 µM).
The matching figures for `CC(=O)O[C@H]1C/C(C)=C\[C@@H]2OC(=O)[C@]3(C)O[C@]23[C@H](O)[C@H]2[C@@H](C)[C@@H](O)C[C@H](OC(C)=O)[C@]2(C)[C@@H]1O` [EXCAVATOLIDE M]: 1 mg/L (≈ 2.07 µM), 0.1 mg/L (≈ 0.207 µM), 2.2 mg/L (≈ 4.56 µM) and 0.001 mg/L (≈ 0.00207 µM).
